Assay results from patent publication US10590128B2, “6,7,8,9-tetrahydro-5H-pyrido[2,3-d]azepine dopamine D3 ligands” (Pfizer Inc., priority 2016, dated 2020).

Assays:
[1] = biological target: human dopamine D3 receptor (hD3R) (Homo sapiens, UniProt P35462); test: Human D3 receptor binding assay ([^3H]-7-OH-DPAT); conditions: CHO cells expressing hD3R, geometric mean of 2-5 determinations unless marked b (single determination), read-out: hD3 in CHO cells Ki
[2] = biological target: human dopamine D2 receptor (hD2R) (Homo sapiens, UniProt P14416); test: Human D2 receptor binding assay ([^3H]-Spiperone); conditions: CHO cells expressing hD2R, geometric mean of 2-5 determinations unless marked b (single determination)
Sequence of human dopamine D2 receptor (hD2R) (P14416 whole entry): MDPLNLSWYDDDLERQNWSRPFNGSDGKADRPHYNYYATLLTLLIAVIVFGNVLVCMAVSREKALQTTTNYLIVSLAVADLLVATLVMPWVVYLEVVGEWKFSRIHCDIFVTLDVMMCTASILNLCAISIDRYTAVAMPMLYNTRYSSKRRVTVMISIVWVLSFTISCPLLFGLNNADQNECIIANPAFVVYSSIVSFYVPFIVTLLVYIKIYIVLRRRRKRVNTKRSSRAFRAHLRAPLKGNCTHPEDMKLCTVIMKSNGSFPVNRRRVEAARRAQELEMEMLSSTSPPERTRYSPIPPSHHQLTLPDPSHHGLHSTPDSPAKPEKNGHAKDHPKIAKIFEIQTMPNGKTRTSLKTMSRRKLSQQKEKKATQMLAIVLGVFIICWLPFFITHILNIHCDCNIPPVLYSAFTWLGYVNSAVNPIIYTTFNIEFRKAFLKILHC

Sequence of human dopamine D3 receptor (hD3R) (P35462 whole entry): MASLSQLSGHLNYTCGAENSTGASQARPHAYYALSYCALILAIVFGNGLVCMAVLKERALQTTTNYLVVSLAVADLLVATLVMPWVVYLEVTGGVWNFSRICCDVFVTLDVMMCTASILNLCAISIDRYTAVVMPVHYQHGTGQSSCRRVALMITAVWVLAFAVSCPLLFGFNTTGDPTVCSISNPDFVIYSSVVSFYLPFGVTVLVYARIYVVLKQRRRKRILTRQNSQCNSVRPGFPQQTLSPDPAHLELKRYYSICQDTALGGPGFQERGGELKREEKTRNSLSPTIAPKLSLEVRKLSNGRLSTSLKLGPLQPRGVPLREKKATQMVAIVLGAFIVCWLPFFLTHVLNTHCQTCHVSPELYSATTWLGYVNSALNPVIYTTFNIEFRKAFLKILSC

## COc1nc2c(cc1NS(=O)(=O)c1ccc(C3CCCCC3)nc1)CCN(C)CC2 [Example 1, 6-Cyclohexyl-N-(2-methoxy-7-methyl-6,7,8,9-tetrahydro-5H-pyrido[2,3-d]azepin-3-yl)pyridine-3-sulfonamide]
[1]
  Ki: 1.75 nM
[2]
  Ki: 38.8 nM

## COc1nc2c(cc1NS(=O)(=O)c1cnc(OC3CCCC3)c(C)c1)CCN(C)CC2 [Example 124, 6-(cyclopentyloxy)-N-(2-methoxy-7-methyl-6,7,8,9-tetrahydro-5H-pyrido[2,3-d]azepin-3-yl)-5-methylpyridine-3-sulfonamide]
[1]
  Ki: 0.79 nM
[2]
  Ki: 3.89 nM

## CCOc1ccc(S(=O)(=O)Nc2cc3c(nc2OC)CCN(CC)CC3)cc1 [Example 52, 4-ethoxy-N-(7-ethyl-2-methoxy-6,7,8,9-tetrahydro-5H-pyrido[2,3-d]azepin-3-yl)benzenesulfonamide]
[1]
  Ki: 2.56 nM
[2]
  Ki: 435 nM

## CCCN1CCc2cc(NS(=O)(=O)c3ccc(OCC)cc3)c(OC)nc2CC1 [Example 50, 4-ethoxy-N-(2-methoxy-7-propyl-6,7,8,9-tetrahydro-5H-pyrido[2,3-d]azepin-3-yl)benzenesulfonamide]
[1]
  Ki: 3.2 nM
[2]
  Ki: 337 nM

## COc1nc2c(cc1NS(=O)(=O)c1ccc(C3(OC)CCCC3)nc1)CCN(C)CC2 [Example 100, 6-(1-methoxycyclopentyl)-N-(2-methoxy-7-methyl-6,7,8,9-tetrahydro-5H-pyrido[2,3-d]azepin-3-yl)pyridine-3-sulfonamide]
[1]
  Ki: 6.35 nM
[2]
  Ki: 663 nM

## COc1nc2c(cc1NS(=O)(=O)c1ccc(C3CCCCO3)cc1)CCN(C)CC2 (stereo not shown) [Example 6, N-(2-Methoxy-7-methyl-6,7,8,9-tetrahydro-5H-pyrido[2,3-d]azepin-3-yl)-4-(tetrahydro-2H-pyran-2-yl)benzenesulfonamide]
[1]
  Ki: 0.866 nM
[2]
  Ki: 54.6 nM

## COc1nc2c(cc1NS(=O)(=O)c1ccc(C3(OC)CCCC3)cc1)CCN(C)CC2 [Example 95, 4-(1-methoxycyclopentyl)-N-(2-methoxy-7-methyl-6,7,8,9-tetrahydro-5H-pyrido[2,3-d]azepin-3-yl)benzenesulfonamide]
[1]
  Ki: 0.6 nM
[2]
  Ki: 45.3 nM

## CCc1nc2c(cc1NS(=O)(=O)c1ccc([C@H]3CCCCO3)cc1)CCN(C)CC2 [Example 140, N-(2-ethyl-7-methyl-6,7,8,9-tetrahydro-5H-pyrido[2,3-d]azepin-3-yl)-4-[(2R)-tetrahydro-2H-pyran-2-yl]benzenesulfonamide]
[1]
  Ki: 27.5 nM
[2]
  Ki: 3300 nM

## COc1nc2c(cc1NS(=O)(=O)c1ccc([C@@H](C)OC)cc1)CCN(C)CC2 [Example 90, 4-[(1R)-1-methoxyethyl]-N-(2-methoxy-7-methyl-6,7,8,9-tetrahydro-5H-pyrido[2,3-d]azepin-3-yl)benzenesulfonamide]
[1]
  Ki: 1.93 nM
[2]
  Ki: 207 nM

## CCN1CCc2cc(NS(=O)(=O)c3ccc([C@]4(F)C[C@H](OC)C4)cc3)c(OC)nc2CC1 [Example 96, N-(7-ethyl-2-methoxy-6,7,8,9-tetrahydro-5H-pyrido[2,3-d]azepin-3-yl)-4-(trans-1-fluoro-3-methoxycyclobutyl)benzenesulfonamide]
[1]
  Ki: 2.79 nM
[2]
  Ki: 317 nM

## COc1nc2c(cc1NS(=O)(=O)c1ccc3c(c1)CCCO3)CCN(C)CC2 [Example 31, N-(2-methoxy-7-methyl-6,7,8,9-tetrahydro-5H-pyrido[2,3-d]azepin-3-yl)-3,4-dihydro-2H-chromene-6-sulfonamide]
[1]
  Ki: 1.24 nM
[2]
  Ki: 564 nM

## CCN1CCc2cc(NS(=O)(=O)c3ccc([C@H]4CCCCO4)c(C)c3)c(OC)nc2CC1 [Example 107, N-(7-ethyl-2-methoxy-6,7,8,9-tetrahydro-5H-pyrido[2,3-d]azepin-3-yl)-3-methyl-4-[(2R)-tetrahydro-2H-pyran-2-yl]benzenesulfonamide]
[1]
  Ki: 0.46 nM
[2]
  Ki: 7.24 nM

## CCN1CCc2cc(NS(=O)(=O)c3ccc(C4(F)CCC(OC)CC4)cc3)c(OC)nc2CC1 (single isomer, unassigned) [Example 94, N-(7-ethyl-2-methoxy-6,7,8,9-tetrahydro-5H-pyrido[2,3-d]azepin-3-yl)-4-(1-fluoro-4-methoxycyclohexyl)benzenesulfonamide]
[1]
  Ki: 2.71 nM
[2]
  Ki: 727 nM

## CCN1CCc2cc(NS(=O)(=O)c3ccc(Cl)cc3)c(C)nc2CC1 [Example 138, 4-chloro-N-(7-ethyl-2-methyl-6,7,8,9-tetrahydro-5H-pyrido[2,3-d]azepin-3-yl)benzenesulfonamide]
[1]
  Ki: 288 nM
[2]
  Ki: > 4190 nM

## COc1nc2c(cc1NS(=O)(=O)c1ccc([C@]3(F)C[C@H](OCCF)C3)cc1)CCN(C)CC2 [Example 133, 4-[trans-1-fluoro-3-(2-fluoroethoxy)cyclobutyl]-N-(2-methoxy-7-methyl-6,7,8,9-tetrahydro-5H-pyrido[2,3-d]azepin-3-yl)benzenesulfonamide]
[1]
  Ki: 2.47 nM
[2]
  Ki: 428 nM

## CCCN1CCc2cc(NS(=O)(=O)c3ccc(C(C)C)cc3)c(OC)nc2CC1 [Example 49, N-(2-methoxy-7-propyl-6,7,8,9-tetrahydro-5H-pyrido[2,3-d]azepin-3-yl)-4-(propan-2-yl)benzenesulfonamide]
[1]
  Ki: 0.88 nM
[2]
  Ki: 102 nM

## COc1nc2c(cc1NS(=O)(=O)c1ccc(OC3CCOC3)nc1)CCN(C)CC2 (stereo not shown) [Example 97, N-(2-methoxy-7-methyl-6,7,8,9-tetrahydro-5H-pyrido[2,3-d]azepin-3-yl)-6-(tetrahydrofuran-3-yloxy)pyridine-3-sulfonamide]
[1]
  Ki: 5.89 nM
[2]
  Ki: 983 nM

## CCN1CCc2cc(NS(=O)(=O)c3ccc(C(C)C)cc3)c(OC)nc2CC1 [Example 51, N-(7-ethyl-2-methoxy-6,7,8,9-tetrahydro-5H-pyrido[2,3-d]azepin-3-yl)-4-(propan-2-yl)benzenesulfonamide]
[1]
  Ki: 1.12 nM
[2]
  Ki: 105 nM

## COc1nc2c(cc1NS(=O)(=O)c1ccc(C3(F)CCC(OC)CC3)cc1)CCN(C)CC2 (single isomer, unassigned) [Example 93, 4-(trans-1-fluoro-4-methoxycyclohexyl)-N-(2-methoxy-7-methyl-6,7,8,9-tetrahydro-5H-pyrido[2,3-d]azepin-3-yl)benzenesulfonamide]
[1]
  Ki: 2.03 nM
[2]
  Ki: 366 nM

## CCOc1ccc(S(=O)(=O)Nc2cc3c(nc2OC(C)C)CCN(CC)CC3)cc1 [Example 14, 4-Ethoxy-N-[7-ethyl-2-(propan-2-yloxy)-6,7,8,9-tetrahydro-5H-pyrido[2,3-d]azepin-3-yl]benzenesulfonamide]
[1]
  Ki: 3.81 nM
[2]
  Ki: 36.6 nM

## COc1nc2c(cc1NS(=O)(=O)c1ccc(C3CC(F)(F)CCO3)cc1)CCN(C)CC2 (single isomer, unassigned) [Example 42]
[1]
  Ki: 5.91 nM
[2]
  Ki: 402 nM

## COc1nc2c(cc1NS(=O)(=O)c1ccc([C@]3(F)C[C@H](OC)C3)cc1)CCN(C)CC2 [Example 10, 4-(trans-1-Fluoro-3-methoxycyclobutyl)-N-(2-methoxy-7-methyl-6,7,8,9-tetrahydro-5H-pyrido[2,3-d]azepin-3-yl)benzenesulfonamide]
[1]
  Ki: 1.16 nM
[2]
  Ki: 99 nM

## CCCc1ccc(S(=O)(=O)Nc2cc3c(nc2OC)CCN(C)CC3)cc1 [Example 118, N-(2-methoxy-7-methyl-6,7,8,9-tetrahydro-5H-pyrido[2,3-d]azepin-3-yl)-4-propylbenzenesulfonamide]
[1]
  Ki: 0.57 nM
[2]
  Ki: 5.41 nM
